Reference: patent publication US20110039793A1, “Application of ginsenoside Rb1 in preparing medicaments for treating dilated cardiomyopathy” (priority 2008, published 2011)

Experiments:
[1] = test system: cTnT^R141W transgenic dilated cardiomyopathy mice model; experiment: M-mode echocardiography, cardiac function and morphous, once a month; type: in vivo; design: CO (Cardiac Output) / LVAW; d (left ventricular anterior wall thickness, end of diastole) / LV Mass (AW) (weight of the left ventricular) / Diameter; d (inner diameter of the left ventricular, end of diastole) / Volume; d (volume of the left ventricular, end of diastole) / SV (Stroke Volume): unit not given here; settings: for Diameter; s (inner diameter of the left ventricular, end of systole) / EF (Ejection Fraction) / FS (Fractional Shortening) / LV Mass (AW) (weight of the left ventricular) / LVAW; d (left ventricular anterior wall thickness, end of diastole) / LVAW; s (left ventricular anterior wall thickness, end of systole) / LVPW; d (left ventricular posterior wall thickness, end of diastole) / LVPW; s (left ventricular posterior wall thickness, end of systole) / SV (Stroke Volume) / Volume; d (volume of the left ventricular, end of diastole) / Volume; s (volume of the left ventricular, end of systole) / CO (Cardiac Output) / Diameter; d (inner diameter of the left ventricular, end of diastole): 75 mg/kg in drinking water
Protocol: The positive mice at 1.5 months old are distributed by weight and cardiac function uniformly into the model group and the ginsenoside Rb1 administration group according to the echocardiography result, and each group comprises twelve mice. Ginsenoside Rb1, 75 mg/kg (State Yao zhun Zi, Yun Nan Tean Na Pharmaceutical Co., Ltd) is put into animal drinking water, and continuously administered for seven months.
Echocardiography detection is performed once a month. Mice were anesthetized with tribromoethanol, scanned by small animal ultrasonic apparatus (Vevo 770 small animal ultrasonic detection system, Canada), with 30 MHz probe, M-mode echocardiography were analyzed: Body weight (BW), LVPW, d (the thickness of the left ventricular posterior wall at the end of the diastole), LVPW, s (the thickness of the left ventricular posterior wall at the end of the systole), LVAW, d (the thickness of the left ventricular anterior wall at the end of the diastole), LVAW, s (the thickness of the left ventricular anterior wall at the end of the systole), LV Mass (the weight of the left ventricular), Diameter, s (the inner diameter of the left ventricular at the end of the systole), Diameter, d (the inner diameter of the left ventricular at the end of the diastole), Volume, s (the volume of the left ventricular at the end of the systole), Volume, d (the volume of the left ventricular at the end of the diastole), SV (Stroke Volume), EF (Ejection Fraction), FS (Fractional Shortening) and CO (Cardiac Output).

[2] = test system: cTnT^R141W transgenic dilated cardiomyopathy mice model; experiment: Cardiac microstructure, HE and Masson staining, light microscope; type: in vivo; settings: long-term administration, vs model group
Protocol: Effects on the cardiac microstructure of the mice model after a long-term administration of ginsenoside Rb1 (HE and Masson staining)
1) Fix the heart and treated in a standard pathological procedure.
3) Composite staining solution for 5 min;
4) Slightly washed by 0.2% acetic acid solution;
5) 5% phosphotungstic acid for 5-10 min;
6) Immersion cleaning twice by 0.2% acetic acid solution;
7) Brilliant green staining solution for 5 min, immersion cleaning twice by 0.2% acetic acid solution;
8) Ethanol dehydration, xylene transparent and sealed with neutral gum;
9) Observed under light microscope, collagen fibers show green, muscle fibers show red and red blood cells show nacarat.

[3] = long-term administration, echocardiography

For CC(C)=CCC[C@](C)(O[C@@H]1O[C@H](CO[C@@H]2O[C@H](CO)[C@@H](O)[C@H](O)[C@H]2O)[C@@H](O)[C@H](O)[C@H]1O)[C@H]1CC[C@]2(C)[C@@H]1[C@H](O)C[C@@H]1[C@@]3(C)CC[C@H](O[C@@H]4O[C@H](CO)[C@@H](O)[C@H](O)[C@H]4O[C@@H]4O[C@H](CO)[C@@H](O)[C@H](O)[C@H]4O)C(C)(C)[C@@H]3CC[C@]12C [Rb1, ginsenoside Rb1], which “Diameter; s (inner diameter of the left ventricular, end of systole)” value (“Diameter; s” for short) ([1]; 4 month of administration) is on record?
The value was 3.38 ± 0.35.

What about the “EF (Ejection Fraction)” value ([1]; 4 month of administration) of the same compound?
Its value is 51.07 ± 6.01.

What about the “FS (Fractional Shortening)” value ([1]; 4 month of administration) of the same compound?
The value was 26.05 ± 3.64.

And the “LV Mass (AW) (weight of the left ventricular)” value (“LV Mass (AW)” below) ([1]; 4 month of administration)?
The value was 131.15 ± 12.93.

What about the “LVAW; d (left ventricular anterior wall thickness, end of diastole)” value (“LVAW; d” below) ([1]; 4 month of administration) of the same compound?
The value was 0.81 ± 0.06.

What about the “LVAW; s (left ventricular anterior wall thickness, end of systole)” value (from here on “LVAW; s”) ([1]; 4 month of administration) of the same compound?
Its value is 1.17 ± 0.11.

And the “LVPW; d (left ventricular posterior wall thickness, end of diastole)” value (from here on “LVPW; d”) ([1]; 4 month of administration)?
The value was 0.71 ± 0.06.

What about the “LVPW; s (left ventricular posterior wall thickness, end of systole)” value (“LVPW; s” below) ([1]; 4 month of administration) of the same compound?
The value was 0.89 ± 0.12.

What about the “SV (Stroke Volume)” value ([1]; 4 month of administration) of the same compound?
Its value is 48.37 ± 3.32.

And the “Volume; d (volume of the left ventricular, end of diastole)” value (from here on “Volume; d”) ([1]; 4 month of administration)?
Its value is 95.93 ± 13.01.

What about the “Volume; s (volume of the left ventricular, end of systole)” value (shortened to “Volume; s”) ([1]; 4 month of administration) of the same compound?
Its value is 47.56 ± 11.76.

What about the “CO (Cardiac Output)” value ([1]; 5 month of administration) of the same compound?
Its value is 23.18 ± 3.13.

What about the “Diameter; d (inner diameter of the left ventricular, end of diastole)” value (shortened to “Diameter; d”) ([1]; 5 month of administration) of the same compound?
The value was 4.93 ± 0.30.

And the “Diameter; s” value ([1]; 5 month of administration)?
Its value is 3.86 ± 0.32.

And the “EF (Ejection Fraction)” value ([1]; 5 month of administration)?
The value was 43.83 ± 3.93.

What about the “FS (Fractional Shortening)” value ([1]; 5 month of administration) of the same compound?
The value was 21.76 ± 2.21.

What about the “LV Mass (AW)” value ([1]; 5 month of administration) of the same compound?
Its value is 150.86 ± 25.12.

And the “LVAW; d” value ([1]; 5 month of administration)?
The value was 0.82 ± 0.12.

What about the “LVAW; s” value ([1]; 5 month of administration) of the same compound?
The value was 1.13 ± 0.10.

What about the “LVPW; d” value ([1]; 5 month of administration) of the same compound?
Its value is 0.74 ± 0.06.

And the “LVPW; s” value ([1]; 5 month of administration)?
The value was 0.82 ± 0.08.

And the “SV (Stroke Volume)” value ([1]; 5 month of administration)?
Its value is 50.03 ± 5.63.

What about the “Volume; d” value ([1]; 5 month of administration) of the same compound?
The value was 115.02 ± 16.33.

And the “Volume; s” value ([1]; 5 month of administration)?
The value was 64.99 ± 12.65.

And the “CO (Cardiac Output)” value ([1]; 6 month of administration)?
Its value is 25.99 ± 2.23.

What about the “Diameter; d” value ([1]; 6 month of administration) of the same compound?
Its value is 5.35 ± 0.19.

And the “Diameter; s” value ([1]; 6 month of administration)?
Its value is 4.38 ± 0.19.

And the “EF (Ejection Fraction)” value ([1]; 6 month of administration)?
Its value is 37.03 ± 3.07.

What about the “FS (Fractional Shortening)” value ([1]; 6 month of administration) of the same compound?
Its value is 18.01 ± 1.71.

And the “LV Mass (AW)” value ([1]; 6 month of administration)?
The value was 180.65 ± 5.80.

And the “LVAW; d” value ([1]; 6 month of administration)?
Its value is 0.74 ± 0.04.

What about the “LVAW; s” value ([1]; 6 month of administration) of the same compound?
Its value is 1.09 ± 0.09.

What about the “LVPW; d” value ([1]; 6 month of administration) of the same compound?
The value was 0.80 ± 0.01.

What about the “LVPW; s” value ([1]; 6 month of administration) of the same compound?
Its value is 0.93 ± 0.06.

And the “SV (Stroke Volume)” value ([1]; 6 month of administration)?
Its value is 51.20 ± 5.31.

What about the “Volume; d” value ([1]; 6 month of administration) of the same compound?
Its value is 138.41 ± 11.40.

And the “Volume; s” value ([1]; 6 month of administration)?
Its value is 87.21 ± 8.99.

And the “CO (Cardiac Output)” value ([1]; 7 month of administration)?
Its value is 24.35 ± 4.80.

And the “Diameter; d” value ([1]; 7 month of administration)?
The value was 5.46 ± 0.34.

And the “Diameter; s” value ([1]; 7 month of administration)?
The value was 4.60 ± 0.44.

What about the “EF (Ejection Fraction)” value ([1]; 7 month of administration) of the same compound?
Its value is 33.02 ± 6.64.

And the “FS (Fractional Shortening)” value ([1]; 7 month of administration)?
Its value is 15.92 ± 3.53.

What about the “LV Mass (AW)” value ([1]; 7 month of administration) of the same compound?
The value was 190.72 ± 20.29.

And the “LVAW; d” value ([1]; 7 month of administration)?
Its value is 0.79 ± 0.12.

And the “LVAW; s” value ([1]; 7 month of administration)?
The value was 1.08 ± 0.17.

And the “LVPW; d” value ([1]; 7 month of administration)?
Its value is 0.82 ± 0.13.

What about the “LVPW; s” value ([1]; 7 month of administration) of the same compound?
The value was 0.87 ± 0.19.

What about the “SV (Stroke Volume)” value ([1]; 7 month of administration) of the same compound?
The value was 47.35 ± 6.92.

And the “Volume; d” value ([1]; 7 month of administration)?
The value was 145.92 ± 21.42.

And the “Volume; s” value ([1]; 7 month of administration)?
Its value is 98.58 ± 22.36.

And the cardiac function [1, 3]?
The cardiac function was “improve the cardiac function”.

What about the “dilation of cardiac chamber” value [1, 3] of the same compound?
The value was “significantly reduce”.

What about the “proliferation of interstitial collagen” value ([2]; Masson staining) of the same compound?
The value was “significantly decreased”.

And the “hypertrophy and disordered arrangement of the myocytes” value ([2]; light microscope)?
Its value is “improved”.
